We go through 3 compounds from PMC8704606, “The Artemiside-Artemisox-Artemisone-M1 Tetrad: Efficacies against Blood Stage P. falciparum Parasites, DMPK Properties, and the Case for Artemiside” (Pharmaceutics, 2021).

Where two headings read alike, the source gives them in different places. Some results are limits rather than exact numbers.

In data set [1] the test system is asexual blood stages of Pf W2 (drug resistant). Nature of the data set: SYBR Green I proliferation assay, asexual blood stages, Pf W2. It counts as cell-based, Plasmodium falciparum. The method, then:
Dose response curves are in Figures S1a–c and S2a–c in the Supplementary Material 1. Table 1 also includes the historical values for artemiside and artemisone obtained using the same assay.
All other assay conditions are as previously described. Compound working solutions were prepared from a 10 mM stock solution in 100% (vol/vol) dimethyl sulfoxide (DMSO, Sigma-Aldrich) in supplemented RPMI 1640 medium containing AlbuMAX II with a final DMSO concentration of 0.1% (vol/vol), previously determined to be nontoxic to blood stage asexual parasites and gametocytes. The dose-responses of the amino-artemisinins were assayed using a 2-fold serial drug dilution on in vitro 95% ring-stage parasites at 37 °C under 90% N2, 5% CO2, and 5% O2 atmospheric conditions, detecting SYBR green I fluorescence as the proliferative marker following a 96 h drug treatment (1% parasitemia and 1% hematocrit) using a GloMaxR-Multi+ Detection System (Promega). No drug washout steps were performed during drug incubation periods prior to the assays. Activity against the Pf drug-sensitive NF54 strain and the drug-resistant K1 (resistant to CQ, quinine, pyrimethamine, and cycloguanil) and W2 (resistant to CQ, quinine, pyrimethamine, and cycloguanil) strains was evaluated. Data analysis was performed using GraphPad Prism (version 6), intra-assay variability was monitored with Z-factors, and acceptable interassay reproducibility was determined from the percent coefficient of variation (CV).

Data set [2] deals with late-stage (LG) Pf NF54 gametocytes. The data set can be described thus: Luciferase assay, late-stage gametocytes. The format is cell-based, Plasmodium falciparum. To be noted: for IC50: late-stage gametocytes >90% stages IV-V, dose response obtained at 72 h, ± SEM. The method, then:
For screening artemisox and M1 against early- (EG) and late-stage (LG) gametocytes, the luciferase assay with transgenic NF54-pfs16-GFP-Luc and NF54-Mal8p1.16-GFP-Luc parasite lines was used. With this assay, stage-specificity of gametocytocidal action was established (Table 2). Dose-response curves are in Figures S1d,e and S2d in the Supplementary Material 1. […] As was observed previously for artemisone and artemiside, dose responses for artemisox and M1 could not be obtained at 48 h against late-stage gametocytes.
The same reference compounds with the exception of CQ were used for the early- and late-stage gametocyte assays. Gametocytocidal activity was determined using the transgenic NF54-pfs16-GFP-Luc and NF54-Mal8p1.16-GFP-Luc reporter lines. Compounds were initially screened for activity at a fixed drug concentration of 1 µM, with dose responses subsequently determined using 2-fold serial drug dilutions for 48 h against early-stage gametocytes (day 5 post-induction population, ≥95% stages II–III) and 10-fold serial drug dilutions for 48 h or 72 h against late-stage gametocytes (day 10 post-induction population, ≥90% late-stage [stages IV–V]) (2 to 3% gametocytemia, 2% hematocrit) at 37 °C under 90% N2, 5% CO2, and 5% O2 [6]. No drug washout steps were performed during the drug incubation periods prior to the assays. In all cases, an interference assay was run in parallel to eliminate the possibility of false positives arising through compound interference with the luciferase readout.

For data set [3], the system named is early-stage (EG) Pf NF54 gametocytes. Also on record: method as in PMID 29866868. To be noted: early-stage gametocytes >95% stages II-III; 48 h incubation; ± SEM; cited from earlier work.
Details of data set [4]: method as in PMID 18559649. To be noted: clinical Phase I trial, subject plasma samples; cited from earlier work.
The test system of data set [5] is 7G8 (CQ resistant). Further details: method as in ref S2. As to conditions: [3H]-hypoxanthine assay; ref S2; read-out: Antimalarial activities IC50 7G8; cited from earlier work.
Data set [6] deals with TM93-C1088 (atovaquone and CQ resistant). Also on record: method as in ref S2. To be noted: [3H]-hypoxanthine assay; ref S2; read-out: Antimalarial activities IC50 TM93-C1088; cited from earlier work.
Data set [7] relates to P. falciparum W2. Further details: method as in ref S3. As to conditions: [3H]-hypoxanthine assay; ref S3; cited from earlier work.
Data set [8] relates to P. falciparum asexual blood stage artemisinin-resistant clone ARC08-22 (4G) carrying the PfKI3 C580Y mutation. Also on record: method as in ref S3. As to conditions: ref S3, cited from earlier work; for IC50 / IC90: 48 h life cycle, PfKI3 C580Y.
Data set [9] relates to P. falciparum asexual blood stage artemisinin-resistant clone PL08-009 (5C) carrying the PfKI3 C580Y mutation. Further details: method as in ref S3. To be noted: ref S3, cited from earlier work; for IC50 / IC90: 36 h life cycle, PfKI3 C580Y.
The test system of data set [10] is P. berghei sporozoites. To be noted: cited from earlier work; for Maximum inhibition % P. berghei sporozoites: ref S3; for IC50: luciferase-expressing P. berghei ANKA GFP-Luc-SMcon sporozoites in HepG2 cells, 48 h, ± SD, ref S3 (7).
For data set [11], the system named is CQ-sensitive P. berghei N strain. To be noted: cited from earlier work; for P. berghei ED90 po / P. berghei ED90 sc: Peters four-day test, mice, ref S4 (24); for P. berghei ED90 po: oral daily day 0-3; for P. berghei ED90 sc: subcutaneous daily day 0-3.
The test system of data set [12] is CQ-resistant P. yoelii NS strain. As to conditions: cited from earlier work; for P. yoelii ED90 po / P. yoelii ED90 sc: Peters four-day test, mice, ref S4 (24); for P. yoelii ED90 sc: subcutaneous; for P. yoelii artesunate index sc: ref S4.
In data set [13] the test system is Toxoplasma gondii (Tg). Further details: method as in PMID 19635951. As to conditions: read-out: EC50 against Tg in vitro; cited from earlier work.
The subject of data set [14] is type II tachyzoites (PRU-Luc-GFP). As to conditions: sc 10 mg/kg/d for 8 days; cited from earlier work.
Data set [15] concerns Toxoplasma gondii (Tg). Further details: method as in PMID 19635951. As to conditions: IFN-γ−/− female mice, 10 mg/kg/d for 8 days after cessation of sulfadiazine; cited from earlier work.
For data set [16] the following is noted: cited from earlier work.
Data set [17] relates to HepG2. As to conditions: ref S3, cited from earlier work; for EC50: read-out: Cytotoxicity EC50 HepG2.
On the set-up of data set [18]: method as in PMID 34097488. As to conditions: cited from earlier work.
[19] abbreviates: 10 mg/kg/d for 14 days by gavage in sesame oil.
[20] abbreviates: 50 mg/kg/d for 14 days by gavage in sesame oil.

Turning to `C[C@H]1[C@H](N2CC[S+]([O-])CC2)O[C@@H]2O[C@@]3(C)CC[C@H]4[C@H](C)CC[C@@H]1[C@@]24OO3` [Artemisox 6, Artemisox], the “RI = IC50 W2/IC50 NF54” value in data set [1] was found to be 0.7. For the same compound, the IC50 in data set [1] (Plasmodium falciparum, asexual blood stage Pf W2, multidrug resistant, SYBR Green I, 96 h, ± SEM) stood at 1.5 ± 0.4 nM; in data set [2] (Plasmodium falciparum, NF54, 72 h), 2.7 nM; in [2] it was 2.72 ± 0.09 nM.
With `C[C@H]1[C@H](N2CCS(=O)(=O)CC2)O[C@@H]2O[C@@]3(C)CC[C@H]4[C@H](C)CC[C@@H]1[C@@]24OO3` [Artemisone 7, Artemisone], the “fold decrease in activity against late-stage gametocytes” value in data set [2] (late-stage vs early-stage gametocytes, p < 0.05) is greater than 20 fold. Besides, the IC50 in data set [3] is 1.94 ± 0.11 nM; in data set [5] it was 0.8 ± 0.1 nM; in data set [6], 0.7 ± 0.2 nM; in data set [7], 1.69 nM; in data set [8], 1.62 nM; in [9] it was 0.27 nM. Further, the IC50 in data set [10] is 28.3 nM. In addition, the “fold higher ex vivo antimalarial activity at Tmax than corresponds to plasma concentration by LC-MS/MS” value in data set [4] is listed as 2.3 fold. Moreover, the figures for the IC90 in [7], in data set [8] and in data set [9] were 3.42 nM, 3.38 nM and 0.43 nM, respectively. The “RI = IC50 for ARC08-22(4G)/IC50 for W2” value in data set [8] was 1.0. Also, the “RI = IC50 for PL08-09 (5C)/IC50 for W2” value in data set [9] is on record as 0.2. Besides, in data set [10] (at 10 µM), the “Maximum inhibition % P. berghei sporozoites” value was 93.35±1.76%. The “P. berghei ED90 po” value in data set [11] is on record as 3.1 mg/kg. Also, the “P. berghei ED90 sc” value in data set [11] is given as 1.5 mg/kg. In data set [11] (ref S4), the “P. berghei artesunate index po (ED90 artesunate/ED90 compound)” value is 2.3. Besides, in data set [11] (ref S4), the “P. berghei artesunate index sc (ED90 artesunate/ED90 compound)” value is listed as 3.2. Moreover, the “P. yoelii ED90 po” value in data set [12] is 5.0 mg/kg. Besides, the “P. yoelii ED90 sc” value in data set [12] is listed as 3.9 mg/kg. Also, in data set [12], the “P. yoelii artesunate index sc” value is 5.6. The EC50 in data set [13] was 120 nM; in [17] it was greater than 50000 nM. Further, the “mice surviving the infection, acute phase” value in data set [14] is recorded as “over 50%”. In data set [15], the “mice with prolonged survival, reactivation stage” value was 60%. Also, the figures for the “neurotoxicity in vivo, effects observed” value in data set [16] (setting [19]) and in data set [16] (setting [20]) were “no effects were observed” and “induced no effects”, respectively. Moreover, the “SI = EC50 HepG2/IC50 P. berghei sporozoites” value in data set [17] is reported as greater than 1767.
For `C[C@H]1[C@H](N2CCSCC2)O[C@@H]2O[C@@]3(C)CC[C@H]4[C@H](C)CC[C@@H]1[C@@]24OO3` [Artemiside 5, Artemiside], the IC50 in data set [3] was 16.4 ± 1 nM. In [18], the “F% (oral bioavailability)” value was 1%. In addition, in data set [7], the IC50 is 2.21 nM and the IC90 was 4.28 nM. In data set [8], the concentration for half-maximal inhibition (IC50) was 2.43 nM, the IC90 is 4.85 nM and the “RI = IC50 for ARC08-22(4G)/IC50 for W2” value is reported as 1.1. Further, in data set [9], the IC50 was 0.29 nM, the IC90 is 0.43 nM and the “RI = IC50 for PL08-09 (5C)/IC50 for W2” value was 0.1. In data set [10] (at 5 µM), the “Maximum inhibition % P. berghei sporozoites” value is 99.05±1.34%. In addition, the IC50 in data set [10] was 81.3 nM. In addition, in data set [11], the “P. berghei ED90 po” value is 1.9 mg/kg and the “P. berghei ED90 sc” value is recorded as 0.51 mg/kg. In addition, in data set [11] (ref S4), the “P. berghei artesunate index sc (ED90 artesunate/ED90 compound)” value was 14.1. Also, in data set [12], the “P. yoelii ED90 po” value was 2.0 mg/kg, the “P. yoelii ED90 sc” value is on record as 0.61 mg/kg and the “P. yoelii artesunate index sc” value is listed as 36.0. Further, the EC50 in [13] was 108 nM. The “mice surviving the infection, acute phase” value in [14] was 60%. The “mice with prolonged survival, reactivation stage” value in data set [15] is given as 80%. Besides, the “neurotoxicity in vivo, effects observed” value in [16] (setting [19]) was “no effects were observed”. In addition, the “neurotoxicity in vivo, effects observed” value in [16] (setting [20]) is “neurotoxic sequelae including body weight loss, reduced motility, uncoordinated gait, and piloerection”. In data set [17], the EC50 is greater than 25000 nM and the “SI = EC50 HepG2/IC50 P. berghei sporozoites” value is greater than 308.

As usually defined, the IC50 is the concentration needed to halve the response being measured. For orientation: IC90 means the concentration at which the effect reaches the 90% level. As usually defined, the EC50 is the concentration giving half of the maximal effect.
